Measured values from the NIST ThermoML archive (doi:10.1016/j.jct.2019.03.040).

Experiments:
[1] = molar heat capacity at constant pressure; details: 101.33 kPa, Liquid, Small sample (50 mg) DSC
[2] = Liquid; for thermal diffusivity: 101.33 kPa, Laser flash apparatus

CCCOC(=O)CCC(C)=O [propyl levulinate]
Details | Critical pressure [kPa] | Critical temperature [K] | molar heat capacity at constant pressure [J/K/mol] | thermal diffusivity [m2/s]
[1], 303.04 K | – | – | 319.87 | –
[1], 303.54 K | – | – | 320.34 | –
[1], 304.04 K | – | – | 320.5 | –
[1], 304.54 K | – | – | 320.03 | –
[1], 305.04 K | – | – | 320.5 | –
[1], 305.54 K | – | – | 320.34 | –
[1], 306.04 K | – | – | 320.5 | –
[1], 306.54 K | – | – | 320.19 | –
[1], 307.04 K | – | – | 320.19 | –
[1], 307.54 K | – | – | 320.82 | –
[1], 308.04 K | – | – | 320.82 | –
[1], 308.54 K | – | – | 321.45 | –
[1], 309.04 K | – | – | 320.82 | –
[1], 309.54 K | – | – | 321.14 | –
[1], 310.04 K | – | – | 321.61 | –
[1], 310.54 K | – | – | 321.14 | –
[1], 311.04 K | – | – | 321.29 | –
[1], 311.54 K | – | – | 321.29 | –
[1], 312.04 K | – | – | 322.08 | –
[1], 312.54 K | – | – | 321.45 | –
[1], 313.04 K | – | – | 322.24 | –
[1], 313.54 K | – | – | 322.08 | –
[1], 314.04 K | – | – | 322.24 | –
[1], 314.54 K | – | – | 322.24 | –
[1], 315.04 K | – | – | 322.56 | –
[1], 315.54 K | – | – | 322.88 | –
[1], 316.04 K | – | – | 322.72 | –
[1], 316.54 K | – | – | 322.24 | –
[1], 317.04 K | – | – | 322.56 | –
[1], 317.54 K | – | – | 323.03 | –
[1], 318.04 K | – | – | 323.98 | –
[1], 318.54 K | – | – | 323.19 | –
[1], 319.04 K | – | – | 323.67 | –
[1], 319.54 K | – | – | 324.14 | –
[1], 320.04 K | – | – | 323.35 | –
[1], 320.54 K | – | – | 323.83 | –
[1], 321.04 K | – | – | 323.67 | –
[1], 321.54 K | – | – | 323.83 | –
[1], 322.04 K | – | – | 323.83 | –
[1], 322.54 K | – | – | 324.62 | –
[1], 323.04 K | – | – | 324.46 | –
[1], 323.54 K | – | – | 324.46 | –
[1], 324.04 K | – | – | 324.3 | –
[1], 324.54 K | – | – | 324.93 | –
[1], 325.04 K | – | – | 324.93 | –
[1], 325.54 K | – | – | 325.25 | –
[1], 326.04 K | – | – | 325.57 | –
[1], 326.54 K | – | – | 325.72 | –
[1], 327.04 K | – | – | 325.88 | –
[1], 327.54 K | – | – | 325.72 | –
[1], 328.04 K | – | – | 326.04 | –
[1], 328.54 K | – | – | 326.67 | –
[1], 329.04 K | – | – | 325.72 | –
[1], 329.54 K | – | – | 326.51 | –
[1], 330.04 K | – | – | 326.2 | –
[1], 330.54 K | – | – | 326.83 | –
[1], 331.04 K | – | – | 326.83 | –
[1], 331.54 K | – | – | 327.15 | –
[1], 332.04 K | – | – | 326.83 | –
[1], 332.54 K | – | – | 327.15 | –
[1], 333.04 K | – | – | 326.83 | –
[1], 333.54 K | – | – | 327.31 | –
[1], 334.04 K | – | – | 327.62 | –
[1], 334.54 K | – | – | 328.1 | –
[1], 335.04 K | – | – | 328.41 | –
[1], 335.54 K | – | – | 328.73 | –
[1], 336.04 K | – | – | 328.41 | –
[1], 336.54 K | – | – | 328.25 | –
[1], 337.04 K | – | – | 328.57 | –
[1], 337.54 K | – | – | 328.57 | –
[1], 338.04 K | – | – | 329.2 | –
[1], 338.54 K | – | – | 328.89 | –
[1], 339.04 K | – | – | 329.05 | –
[1], 339.54 K | – | – | 329.2 | –
[1], 340.04 K | – | – | 328.89 | –
[1], 340.54 K | – | – | 329.36 | –
[1], 341.04 K | – | – | 329.84 | –
[1], 341.54 K | – | – | 329.99 | –
[1], 342.04 K | – | – | 329.68 | –
[1], 342.54 K | – | – | 329.36 | –
[1], 343.04 K | – | – | 330.31 | –
[1], 343.54 K | – | – | 330.31 | –
[1], 344.04 K | – | – | 330.15 | –
[1], 344.54 K | – | – | 330.15 | –
[1], 345.04 K | – | – | 330.63 | –
[1], 345.54 K | – | – | 331.1 | –
[1], 346.04 K | – | – | 331.1 | –
[1], 346.54 K | – | – | 330.94 | –
[1], 347.04 K | – | – | 331.58 | –
[1], 347.54 K | – | – | 331.58 | –
[1], 348.04 K | – | – | 331.73 | –
[1], 348.54 K | – | – | 332.05 | –
[1], 349.04 K | – | – | 331.89 | –
[1], 349.54 K | – | – | 332.05 | –
[1], 350.04 K | – | – | 332.37 | –
[1], 350.54 K | – | – | 332.68 | –
[1], 351.04 K | – | – | 333.16 | –
[1], 351.54 K | – | – | 333 | –
[1], 352.04 K | – | – | 333 | –
[1], 352.54 K | – | – | 333.16 | –
[1], 353.04 K | – | – | 333.95 | –
[1], 353.54 K | – | – | 333.47 | –
[1], 354.04 K | – | – | 334.27 | –
[1], 354.54 K | – | – | 334.27 | –
[1], 355.04 K | – | – | 334.42 | –
[1], 355.54 K | – | – | 334.74 | –
[1], 356.04 K | – | – | 334.27 | –
[1], 356.54 K | – | – | 334.42 | –
[1], 357.04 K | – | – | 334.58 | –
[1], 357.54 K | – | – | 334.58 | –
[1], 358.04 K | – | – | 335.22 | –
[1], 358.54 K | – | – | 335.37 | –
[1], 359.04 K | – | – | 335.85 | –
[1], 359.54 K | – | – | 335.85 | –
[1], 360.04 K | – | – | 335.53 | –
[1], 360.54 K | – | – | 336.01 | –
[1], 361.04 K | – | – | 336.32 | –
[1], 361.54 K | – | – | 336.64 | –
[1], 362.04 K | – | – | 336.16 | –
[1], 362.54 K | – | – | 336.01 | –
[1], 363.04 K | – | – | 336.16 | –
[1], 363.54 K | – | – | 336.64 | –
[1], 364.04 K | – | – | 337.11 | –
[1], 364.54 K | – | – | 337.11 | –
[1], 365.04 K | – | – | 337.11 | –
[1], 365.54 K | – | – | 337.11 | –
[1], 366.04 K | – | – | 337.9 | –
[1], 366.54 K | – | – | 337.9 | –
[1], 367.04 K | – | – | 337.59 | –
[1], 367.54 K | – | – | 337.59 | –
[1], 368.04 K | – | – | 338.06 | –
[1], 368.54 K | – | – | 338.06 | –
[1], 369.04 K | – | – | 337.75 | –
[1], 369.54 K | – | – | 337.9 | –
[1], 370.04 K | – | – | 338.22 | –
[1], 370.54 K | – | – | 338.06 | –
[1], 371.04 K | – | – | 338.54 | –
[1], 371.54 K | – | – | 338.54 | –
[1], 372.04 K | – | – | 338.7 | –
[1], 372.54 K | – | – | 339.49 | –
[1], 373.04 K | – | – | 339.33 | –
[1], 373.54 K | – | – | 339.49 | –
[1], 374.04 K | – | – | 340.12 | –
[1], 374.54 K | – | – | 340.75 | –
[2], 303.15 K | – | – | – | 7.82e-08
[2], 313.15 K | – | – | – | 7.73e-08
[2], 323.15 K | – | – | – | 7.62e-08
[2], 333.15 K | – | – | – | 7.53e-08
[2], 343.15 K | – | – | – | 7.37e-08
[2], 353.15 K | – | – | – | 7.26e-08
[2], 363.15 K | – | – | – | 7.22e-08
[2], Resistive pulse heating | 2670 | 674 | – | –
